Data as given in US20230148299A1, “FEM1B PROTEIN BINDING AGENTS AND USES THEREOF” (The Regents Of The University Of California, priority 2020, published 2023).

Legend:
[1] = molecular target: FEM1B-FNIP1 (Homo sapiens, UniProt Q9UK73); assay: Fluorescence polarization between FEM1B and FNIP1 (covalent ligand screen); type: binding; details: DMSO = 100, FP between FEM1B and FNIP1
From the text: FIG. 11. Fluorescence polarization screen to identify functional FEM1B-FNIP1-targeting covalent ligands.
FEM1B binds a conserved central degron in FNIP1. Deletion analysis of FNIP1 identifies a stretch of 20 amino acids that is required for its binding to FEM1B and its proteasomal degradation. FNIP1 variants were expressed in cells and tested for interaction with ^FLAGFEM1B by co-immunoprecipitation, and for degradation by measuring their abundance in the presence or absence of FEM1B. The FNIP1 degron is required for FEM1B binding and proteasomal degradation. […] FEM1B variants were immunoprecipitated and bound FNIP1 and FLCN were detected by Western blotting. The FNIP1 degron is sufficient to mediate FEM1B-dependent degradation. The FNIP1 degron was fused to GFP (GFP^degron) and expressed from the same plasmid as an IRES controlled mCherry. mCherry provides normalization for GFP fluorescence in each cell. […] Levels of GFP^degron and mCherry were determined by FACS, and their ratio is depicted for presence or absence of FEM1B variants. Deletion of FEM1B prevents FNIP1-degron dependent degradation. The FEM1B locus was deleted in 293T cells using CRISPR/Cas9. Cells were transfected with the GFP^degron/mCherry reporter, and analyzed for GFP and mCherry fluorescence by FACS. FEM1B directly binds the FNIP1 degron in vitro. A TAMRA-labeled FNIP1 degron peptide was incubated with purified FEMIB or the control CRL1 adaptor FBXL17, and binding was measured by fluorescence polarization of the peptide. The FNIP1 degron is sufficient to mediate CUL2^FEM1B-dependent ubiquitylation. The TAMRA-labeled FNIP1 degron was incubated with recombinant CUL2^FEM1B (unmodified or NEDD8-modified), E1, ubiquitin, ATP and the E2 enzymes UBE2D3 and/or UBE2R1. Ubiquitylation was monitored by gel electrophoresis and fluorescence detection.

[2] = molecular target: T1, FEM1B (Homo sapiens, UniProt Q9UK73); assay: Gel-based ABPP of EN106 against FEM1B and site identification; type: binding; details: C186
From the text: FIGS. 12A-12B. […] FIG. 12A: Gel-based ABPP of EN106 against FEM1B. FIG. 12B: EN106 targets C186 in FEM1B. C186 is critical for substrate recognition of FEM1B. Sequence shown is: […] (residues 183-205 of SEQ ID NO:1).

[3] = test system: GFP-Fnip1 degron reporter; assay: GFP-Fnip1 degron reporter (GFP/mCherry) by flow cytometry; type: cell-based; details: HEK293T cells, reporter +/- Fem1b, 20 μM, 8 hours
Experimental: HEK293T cells were transfected 24 hours before flow cytometery with the GFP-Fnip1 degron reporter+/−Fem1b.
FNIP1 variants were expressed in cells and tested for interaction with ^FLAGFEM1B by co-immunoprecipitation, and for degradation by measuring their abundance in the presence or absence of FEM1B. […] FEM1B variants were immunoprecipitated and bound FNIP1 and FLCN were detected by Western blotting. […] The FNIP1 degron was fused to GFP (GFP^degron) and expressed from the same plasmid as an IRES controlled mCherry. mCherry provides normalization for GFP fluorescence in each cell. […] Levels of GFP^degron and mCherry were determined by FACS, and their ratio is depicted for presence or absence of FEM1B variants. […] Cells were transfected with the GFP^degron/mCherry reporter, and analyzed for GFP and mCherry fluorescence by FACS. […] A TAMRA-labeled FNIP1 degron peptide was incubated with purified FEMIB or the control CRL1 adaptor FBXL17, and binding was measured by fluorescence polarization of the peptide. […] The TAMRA-labeled FNIP1 degron was incubated with recombinant CUL2^FEM1B (unmodified or NEDD8-modified), E1, ubiquitin, ATP and the E2 enzymes UBE2D3 and/or UBE2R1. Ubiquitylation was monitored by gel electrophoresis and fluorescence detection.

[4] = molecular target: T1, FEM1B; assay: EN106-alkyne pulldown and isoTOP-ABPP in HEK293T cells; type: cell-based; design: endogenous in cells; host or cells: HEK293T; details: EN106 10 μM 2 h (isoTOP-ABPP), EN106-alkyne pulldown
Experimental: FIGS. 14A-14C. […] FIG. 14A: Structures of EN106 and EN106-alkyne (NJH-2-030). FIG. 14B: EN106-alkyne pulldown. See Example 4 for experimental procedure. FIG. 14C: HEK293T cells were treated with vehicle or EN106 (10 μM) for 2 h and cell lysates were subjected to the isoTOP-ABPP protocol described in Example 4.
EN106-alkyne pulldown protocol. HEK293T cells were treated with DMSO or 10 μM NJH-2-030 in situ for 8 h. Cells were harvested, lysed via sonication and normalized to 2.0 mg/mL. Following normalization, 100 μL of each lysate sample was removed for Western blot analysis of input, and 500 μL of each lysate sample was incubated for 1 h at room temperature with 10 μL of 5 mM biotin picolyl azide (in water) (Sigma Aldrich 900912), 10 μL of 50 mM TCEP (in water), 30 μL of TBTA ligand (0.9 mg/mL in DMSO:t-butanol=1:4), and 10 μL of 50 mM Copper (II) Sulfate (12.5 mg/mL in water). Proteins were precipitated, washed 3×1 mL with cold MeOH, resolubilized in 1 mL of 1.2% SDS/PBS (w/v), heated for 5 min at 90° C., and centrifuged to remove any insoluble components. […] Proteins in each sample were then analyzed by Western blotting to look for enriched FEM1B versus non-enriched GAPDH.
IsoTOP-ABPP Chemoproteomic Experiment. […] Cells were lysed by probe sonication in PBS and protein concentrations were measured by BCA assay. […]

FEM1B-FNIP1, sequence (Q9UK73 whole entry): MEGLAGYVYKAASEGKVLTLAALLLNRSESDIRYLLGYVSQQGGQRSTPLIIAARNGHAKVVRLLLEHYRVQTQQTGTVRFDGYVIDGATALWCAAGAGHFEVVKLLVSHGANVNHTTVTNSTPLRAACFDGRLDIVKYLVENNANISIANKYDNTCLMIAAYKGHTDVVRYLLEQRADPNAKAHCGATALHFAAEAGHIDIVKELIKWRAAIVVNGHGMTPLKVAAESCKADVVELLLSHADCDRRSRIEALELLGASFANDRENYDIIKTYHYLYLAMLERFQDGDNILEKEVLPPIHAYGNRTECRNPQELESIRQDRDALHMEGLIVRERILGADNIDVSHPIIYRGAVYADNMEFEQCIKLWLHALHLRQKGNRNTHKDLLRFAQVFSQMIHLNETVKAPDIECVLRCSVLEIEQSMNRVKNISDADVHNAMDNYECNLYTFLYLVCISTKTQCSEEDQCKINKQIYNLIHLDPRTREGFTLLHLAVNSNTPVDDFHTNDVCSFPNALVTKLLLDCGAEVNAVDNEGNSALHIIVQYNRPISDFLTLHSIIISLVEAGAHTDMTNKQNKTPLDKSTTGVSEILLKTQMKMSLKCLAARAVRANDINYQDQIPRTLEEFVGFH
T1 sequence (Q9UK73 whole entry, the tested form may be a part): as the sequence (Q9UK73 whole entry) above

N#CCCN(C(=O)CCl)c1ccc2c(c1)OCCO2 [EN106, 2-chloro-N-(2-cyanoethyl)-N-(2,3-dihydrobenzo[b][1,4]dioxin-6-yl)acetamide]
remaining activity at 5 µM ([1]; compound at 5 μM, read-out: Normalized FP 5 μM): 50.6% | activity at 50 µM ([1]; compound at 50 μM, read-out: Normalized FP 50 μM): 4.2% | covalent targeting of FEM1B cysteine [2]: covalently targets C186 on FEM1B | inhibition of FEM1B in cells / FNIP1 stabilization [3]: inhibits endogenous and overexpressed FEM1B in cells and stabilizes FNIP1 | FEM1B engagement in cells [4]: engages FEM1B in cells
